Active and inactive are the calls of the source. No cut-off for these calls is given here.
Columns and labels:
[1] = test system: PC-3; assay: Antiproliferative activity against human PC-3 cells measured after 72 hrs by MTT assay; format: functional, cell-based; conditions: PC-3, 72 h
[2] = test system: ECa-109 cell line; assay: Antiproliferative activity against human Eca-109 cells measured after 72 hrs by MTT assay; format: functional, cell-based; conditions: ECa-109, 72 h
[3] = test system: MCF7; assay: cells; conditions: Homo sapiens, MCF7, 72 h
Description: Antiproliferative activity against human MCF7 cells measured after 72 hrs by MTT assay

[4] = test system: MGC-803; assay: cells; conditions: Homo sapiens, MGC-803, 72 h
Description: Antiproliferative activity against human MGC-803 cells measured after 72 hrs by MTT assay

[5] = Induction of NO release in phosphate buffer containing excess L-cysteine measured up to 14 hrs by Griess assay; format: functional

SMILES | IC50 [1] | IC50 [2] | IC50 [3] | IC50 [4] | Activity [5]
C=CC(=O)Nc1cccc(Nc2nc(SCC(=O)N3CCN(CCOc4no[n+]([O-])c4S(=O)(=O)c4ccccc4)CC3)nc(-c3ccccc3)c2C#N)c1 | 1.88 µM | 3.66 µM | 4.22 µM | 1.41 µM | 
N#Cc1c(Nc2ccccc2)nc(SCC(=O)OCCCCOc2no[n+]([O-])c2S(=O)(=O)c2ccccc2)nc1-c1ccccc1 | 2.45 µM | > 50 µM | 5.08 µM | 7 µM | 
COc1ccccc1Nc1nc(SCC(=O)N2CCN(CCOc3no[n+]([O-])c3S(=O)(=O)c3ccccc3)CC2)nc(-c2ccccc2)c1C#N | 1.7 µM | 4.7 µM | 3.3 µM | 1.46 µM | 
N#Cc1c(Nc2cccc(Br)c2)nc(SCC(=O)N2CCN(CCOc3no[n+]([O-])c3S(=O)(=O)c3ccccc3)CC2)nc1-c1ccccc1 | 1.55 µM | 3.45 µM | 3.16 µM | 1.33 µM | 
N#Cc1c(-c2ccccc2)nc(SCC(=O)N2CCN(CCOc3no[n+]([O-])c3S(=O)(=O)c3ccccc3)CC2)nc1N1CCOCC1 | 6.98 µM | 6.92 µM | 8.95 µM | 8.13 µM | Active
N#Cc1c(Nc2ccc(F)c(Cl)c2)nc(SCC(=O)N2CCN(CCOc3no[n+]([O-])c3S(=O)(=O)c3ccccc3)CC2)nc1-c1ccccc1 | 1.97 µM | 2.81 µM | 3.36 µM | 1.07 µM | 
N#Cc1c(Nc2ccc(C(F)(F)F)cc2)nc(SCC(=O)N2CCN(CCOc3no[n+]([O-])c3S(=O)(=O)c3ccccc3)CC2)nc1-c1ccccc1 | 3.52 µM | 4.64 µM | 2.23 µM | 1.56 µM | 
N#Cc1c(Nc2ccc(Cl)c(Cl)c2)nc(SCC(=O)N2CCN(CCOc3no[n+]([O-])c3S(=O)(=O)c3ccccc3)CC2)nc1-c1ccccc1 | 1.85 µM | 3.92 µM | 3.35 µM | 1.88 µM | 
Cc1ccccc1Nc1nc(SCC(=O)N2CCN(CCOc3no[n+]([O-])c3S(=O)(=O)c3ccccc3)CC2)nc(-c2ccccc2)c1C#N | 2.25 µM | 2.48 µM | 2.33 µM | 1.59 µM | 
N#Cc1c(Nc2cccc(F)c2)nc(SCC(=O)N2CCN(CCOc3no[n+]([O-])c3S(=O)(=O)c3ccccc3)CC2)nc1-c1ccccc1 | 1.63 µM | 4.54 µM | 2.72 µM | 1.08 µM | 
N#Cc1c(Nc2ccccc2)nc(SCC(=O)OCCCCCOc2no[n+]([O-])c2S(=O)(=O)c2ccccc2)nc1-c1ccccc1 | 2.28 µM | > 50 µM | 5.94 µM | 3.8 µM | 
N#Cc1c(-c2ccccc2)nc(SCC(=O)N2CCN(CCOc3no[n+]([O-])c3S(=O)(=O)c3ccccc3)CC2)nc1N1CCSCC1 | 5.05 µM | 6.68 µM | 6.81 µM | 4.61 µM | 
N#Cc1c(Nc2ccc(Cl)cc2)nc(SCC(=O)N2CCN(CCOc3no[n+]([O-])c3S(=O)(=O)c3ccccc3)CC2)nc1-c1ccccc1 | 2.08 µM | 3.01 µM | 3.04 µM | 2.05 µM | Active
N#Cc1c(Nc2ccccc2)nc(SCC(=O)NCCOc2no[n+]([O-])c2S(=O)(=O)c2ccccc2)nc1-c1ccccc1 | 2.37 µM | 6.35 µM | 4.16 µM | 2.58 µM | 
N#Cc1c(Nc2ccccc2)nc(SCC(=O)N2CCN(CCOc3no[n+]([O-])c3S(=O)(=O)c3ccccc3)CC2)nc1-c1ccccc1 | 1.92 µM | 2.27 µM | 2.96 µM | 2 µM | 
N#Cc1c(Nc2ccccc2F)nc(SCC(=O)N2CCN(CCOc3no[n+]([O-])c3S(=O)(=O)c3ccccc3)CC2)nc1-c1ccccc1 | 1.19 µM | 3.56 µM | 2.28 µM | 1.44 µM | 
CCN1CCN(c2nc(SCC(=O)N3CCN(CCOc4no[n+]([O-])c4S(=O)(=O)c4ccccc4)CC3)nc(-c3ccccc3)c2C#N)CC1 | 1.42 µM | 2.27 µM | 2.24 µM | 1.24 µM | 
N#Cc1c(Nc2ccccc2)nc(SCC(=O)NCCCCCOc2no[n+]([O-])c2S(=O)(=O)c2ccccc2)nc1-c1ccccc1 | 2.3 µM | 4.61 µM | 4.02 µM | 2.21 µM | 
Cc1ccc(Nc2nc(SCC(=O)N3CCN(CCOc4no[n+]([O-])c4S(=O)(=O)c4ccccc4)CC3)nc(-c3ccccc3)c2C#N)cc1 | 2.37 µM | 2.94 µM | 2.14 µM | 1.36 µM | 
COc1cccc(Nc2nc(SCC(=O)N3CCN(CCOc4no[n+]([O-])c4S(=O)(=O)c4ccccc4)CC3)nc(-c3ccccc3)c2C#N)c1 | 3.38 µM | 4.6 µM | 2.09 µM | 1.54 µM | 
N#Cc1c(Nc2ccc(F)cc2)nc(SCC(=O)N2CCN(CCOc3no[n+]([O-])c3S(=O)(=O)c3ccccc3)CC2)nc1-c1ccccc1 | 1.39 µM | 2.48 µM | 2.23 µM | 1.56 µM | 
N#Cc1c(Nc2ccccc2)nc(SCC(=O)OCCc2ccc(Oc3no[n+]([O-])c3S(=O)(=O)c3ccccc3)cc2)nc1-c1ccccc1 | 2.1 µM | 23.1 µM | > 50 µM | 18.4 µM | 

SMILES | IC50 [1] | IC50 [2] | IC50 [3] | IC50 [4] | Activity [5]
N#Cc1c(Nc2ccccc2)nc(SCC(=O)N2CCC(Oc3no[n+]([O-])c3S(=O)(=O)c3ccccc3)C2)nc1-c1ccccc1 (stereo unspecified) | 2.18 µM | 4.39 µM | 3.55 µM | 3.56 µM | 
CCc1ccc(Nc2nc(SCC(=O)N3CCN(CCOc4no[n+]([O-])c4S(=O)(=O)c4ccccc4)CC3)nc(-c3ccccc3)c2C#N)cc1 | 2.72 µM | 5.97 µM | 3.39 µM | 1.45 µM | 
N#Cc1c(Nc2ccccc2)nc(SCC(=O)NCCCOc2no[n+]([O-])c2S(=O)(=O)c2ccccc2)nc1-c1ccccc1 | 2.28 µM | 5.73 µM | 6.03 µM | 2.95 µM | 
CCCc1cccc(Nc2nc(SCC(=O)N3CCN(CCOc4no[n+]([O-])c4S(=O)(=O)c4ccccc4)CC3)nc(-c3ccccc3)c2C#N)c1 | 2.92 µM | 8.05 µM | 3.03 µM | 1.89 µM | 
CCOc1ccccc1Nc1nc(SCC(=O)N2CCN(CCOc3no[n+]([O-])c3S(=O)(=O)c3ccccc3)CC2)nc(-c2ccccc2)c1C#N | 2.05 µM | 3.75 µM | 3.61 µM | 1.46 µM | 
O=S(=O)(c1ccccc1)c1c(OCCN2CCNCC2)no[n+]1[O-] |  |  |  | 6.74 µM | 
N#Cc1c(Nc2cccc(C(F)(F)F)c2)nc(SCC(=O)N2CCN(CCOc3no[n+]([O-])c3S(=O)(=O)c3ccccc3)CC2)nc1-c1ccccc1 | 2.19 µM | 2.89 µM | 2.21 µM | 1.26 µM | 
N#Cc1c(Nc2ccccc2)nc(SCC(=O)OCCCOc2no[n+]([O-])c2S(=O)(=O)c2ccccc2)nc1-c1ccccc1 | 2.32 µM | 8.58 µM | 7.66 µM | 7.31 µM | 
CCc1cccc(Nc2nc(SCC(=O)N3CCN(CCOc4no[n+]([O-])c4S(=O)(=O)c4ccccc4)CC3)nc(-c3ccccc3)c2C#N)c1 | 2.4 µM | 4.1 µM | 2.87 µM | 1.11 µM | 
CCc1ccccc1Nc1nc(SCC(=O)N2CCN(CCOc3no[n+]([O-])c3S(=O)(=O)c3ccccc3)CC2)nc(-c2ccccc2)c1C#N | 2.93 µM | 4.42 µM | 2.6 µM | 2.01 µM | 
N#Cc1c(Nc2ccc(Br)cc2)nc(SCC(=O)N2CCN(CCOc3no[n+]([O-])c3S(=O)(=O)c3ccccc3)CC2)nc1-c1ccccc1 | 1.94 µM | 3.32 µM | 2.31 µM | 1.39 µM | 
N#Cc1c(Nc2ccccc2C(F)(F)F)nc(SCC(=O)N2CCN(CCOc3no[n+]([O-])c3S(=O)(=O)c3ccccc3)CC2)nc1-c1ccccc1 | 3.02 µM | 3.85 µM | 2.26 µM | 1.67 µM | 
N#Cc1c(Nc2ccccc2)nc(SCC(=O)OCCCCCCOc2no[n+]([O-])c2S(=O)(=O)c2ccccc2)nc1-c1ccccc1 | 13 µM | > 50 µM | > 50 µM | > 50 µM | 
N#Cc1c(Nc2ccccc2)nc(SCC(=O)N2CCC(Oc3no[n+]([O-])c3S(=O)(=O)c3ccccc3)CC2)nc1-c1ccccc1 | 2.01 µM | 7.03 µM | 6.02 µM | 2.57 µM | 
Cc1cccc(Nc2nc(SCC(=O)N3CCN(CCOc4no[n+]([O-])c4S(=O)(=O)c4ccccc4)CC3)nc(-c3ccccc3)c2C#N)c1 | 2.1 µM | 2.38 µM | 2.12 µM | 1.25 µM | 
CCOc1ccc(Nc2nc(SCC(=O)N3CCN(CCOc4no[n+]([O-])c4S(=O)(=O)c4ccccc4)CC3)nc(-c3ccccc3)c2C#N)cc1 | 2.84 µM | 3.57 µM | 5.43 µM | 2.95 µM | 
N#Cc1c(Nc2ccccc2)nc(SCC(=O)OCC#CCOc2no[n+]([O-])c2S(=O)(=O)c2ccccc2)nc1-c1ccccc1 | 2.06 µM | 3.27 µM | 10.4 µM | 2.67 µM | 
CCCc1ccc(Nc2nc(SCC(=O)N3CCN(CCOc4no[n+]([O-])c4S(=O)(=O)c4ccccc4)CC3)nc(-c3ccccc3)c2C#N)cc1 | 1.16 µM | 5.42 µM | 2.07 µM | 1.09 µM | 
N#Cc1c(Nc2cccc(Cl)c2)nc(SCC(=O)N2CCN(CCOc3no[n+]([O-])c3S(=O)(=O)c3ccccc3)CC2)nc1-c1ccccc1 | 1.43 µM | 2.31 µM | 2.51 µM | 1.19 µM | 
CCCc1ccccc1Nc1nc(SCC(=O)N2CCN(CCOc3no[n+]([O-])c3S(=O)(=O)c3ccccc3)CC2)nc(-c2ccccc2)c1C#N | 2.15 µM | 4.61 µM | 2.74 µM | 2.04 µM | 
CN1CCN(c2nc(SCC(=O)N3CCN(CCOc4no[n+]([O-])c4S(=O)(=O)c4ccccc4)CC3)nc(-c3ccccc3)c2C#N)CC1 | 1.57 µM | 2.34 µM | 2.69 µM | 1.46 µM | 

From ChEMBL document CHEMBL5365407, “Design, synthesis and biological evaluation of nitric oxide-releasing 5-cyano-6-phenyl-2, 4-disubstituted pyrimidine derivatives” (Bioorg Med Chem Lett, 2023)
